Patent publication EP0252983B1, “SALTS OF N-(VINYLOXIETHYL)DITHIOCARBAMIC ACID, METHOD OF OBTAINING THEREOF AND […] ON THEM” (priority 1985, dated 1987)

Experiments:
[1] = tested on: gewöhnlichen Mehlkäfern und Schwarmspinnerraupen; assay: Antifeedant activity; assay type: in vivo; conditions: Vergleichsmuster Brestan
Text: Die Prüfung der antiphydanten Aktivität wurde an gewöhnlichen Mehlkäfern und Schwarmspinnerraupen durchgeführt.

[2] = Storage stability (descriptive); assay type: physicochemical
Acremonium cowum = assay: Mycelial growth inhibition on agar (contact activity); assay type: cell-based
Acremonium charticola = assay: as above; assay type: cell-based
Penicillium charlesii = assay: as above; assay type: cell-based
Experimental: (§1) Die Prüfungen werden nach dem Verfahren zur Ermittlung der Kontaktaktivität durchgeführt. Man verwendet das in Wasser gelöste Kalium-N-(vinyloxyäthyl)dithiocarbamat, führt es in ein Nährmedium ein und vergießt auf Petri-Schalen. Nach 24 Stunden wird mit Pilzmyzelium nach einem Stichverfahren geimpft. Dann temperiert man die Schalen innerhalb von 5 Tagen bei einer zwischen 24 und 26 °C liegenden Temperatur und mißt den Durchmesser von Pilzkolonien, ermittelt den Prozentsatz der Hemmung des Myzelwachstums (S) ausgehend von Angaben am 5. Tag nach der Abbott-Formel [drawing 13] worin dc für den Durchmesser der Pilzkolonien, de für den Durchmesser von Pilzkolonien in der Schale stehen, wo ein die zu prüfenden Stoffe enthaltendes Medium vorhanden ist. Dieses Verfahren zur Ermittlung der mikrobiologischen Aktivität ist in anderen Beispielen verwendet.
(§2) Die Pilzkulturen werden auf Würzeagar gezüchtet. Ergebnisse, erhalten bei der Prüfung der fungiziden Aktivität gegen reine Kulturen von Mikroorganismen, welche Bioschädigungen hervorrufen, sind in der Tabelle 1 dargestellt.

Walrotiela subiculesa = assay: as above; assay type: cell-based
Experimental: as §1, §2

Geotrichum candidum Link = assay: as above; assay type: cell-based
Experimental: as §1, §2

Penicillium chrysogenum = assay: as above; assay type: cell-based
Experimental: as §1, §2

[3] = Solubility in water (descriptive); assay type: physicochemical
[4] = tested on: Cladosporium cladosporioides; assay: Mycelial growth inhibition on agar (contact activity); assay type: cell-based
[5] = Acute toxicity (LD50) in mice; assay type: in vivo, weißen Mäusen; conditions: intraabdominale Applikation an weißen Mäusen
Bacillus = assay: Bactericidal activity on agar (concentration of complete growth inhibition); assay type: cell-based; conditions: % bezogen auf den Wirkstoff; am 5. Tag
Experimental: (§3) Geprüft wird die bakterizide Aktivität von Kalium-, Natrium-, Zink- und Kupfersalzen der N-(Vinyloxyäthyl)dithiocarbamidsäure gegen Bakterien der Gattungen Bacillus, Micrococcus, Pseudomonas, Escherichia und Xantomonas.
(§4) Man stellt wäßrige Stofflösungen verschiedener Konzentration her, die so berechnet werden, daß die Stoffkonzentration in der Petri-Schale bei der Gabe von 1 ml Lösung in das geschmolzene Nährmedium (45 bis 50 °C) zwischen 0,003 und 25 % (bezogen auf den Wirkstoff) schwankt. Nach 18 bis 24 Stunden bringt man auf die Oberfläche des Nährmediums 0,1 ml wäßrige Suspension eintägiger reiner Kulturen von Bakterien auf und verteilt sie gleichmäßig. In Kontrollschalen verteilt sich 0,1 ml Wasser über die Oberfläche des Nährmediums. Die Inkubation erfolgt bei 37 °C innerhalb von 5 Tagen. Die Wirksamkeit der Stoffe wird nach dem Auftreten des Bakterienwachstums auf der Oberfläche des Nährmediums eingeschätzt. Die Prüfergebnisse sind in der Tabelle 13 dargestellt.

Xantomonas = assay: as above; assay type: cell-based; conditions: % bezogen auf den Wirkstoff; am 5. Tag
Experimental: as §3, §4

Micrococcus = assay: as above; assay type: cell-based; conditions: % bezogen auf den Wirkstoff; am 5. Tag
Experimental: as §3, §4

Escherichia = assay: as above; assay type: cell-based; conditions: % bezogen auf den Wirkstoff; am 5. Tag
Experimental: as §3, §4

Pseudomonas = assay: as above; assay type: cell-based; conditions: % bezogen auf den Wirkstoff; am 5. Tag
Experimental: as §3, §4

Cladosporium resinae = assay: Mycelial growth inhibition on agar (contact activity); assay type: cell-based
[6] = Konzentration des Praparats 0,1 %, Tabelle 12
[7] = Konzentration des Praparats 0,2 %, Tabelle 12
[8] = Konzentration des Praparats 0,4 %, Tabelle 12
[9] = Konzentration des Praparats 0,05 %, Tabelle 12
[10] = Konzentration des Praparats 0,8 %, Tabelle 12
[11] = Konzentration des Präparats 0,01 %, Tabelle 11
[12] = Konzentration des Präparats 0,02 %, Tabelle 11
[13] = Konzentration des Präparats 0,05 %, Tabelle 11
[14] = Konzentration des Präparats 0,10 %, Tabelle 11
[15] = Konzentration des Präparats 0,005 %, Tabelle 11

Substance: Kupfer-N-(vinyloxyäthyl)dithiocarbamat
- antiphydante Aktivität [1]: auf gleicher Höhe mit Brestan
- Lagerbeständigkeit [2]: lagerbeständig
- Myzelhemmung in % (Acremonium cowum; [6]): 100%
- Myzelhemmung in % (Acremonium cowum; [7]): 100%
- Myzelhemmung in % (Acremonium cowum; [8]): 100%
- Myzelhemmung in % (Acremonium cowum; [9]): 50%
- Myzelhemmung in % (Acremonium cowum; [10]): 100%
- Myzelhemmung in % (Acremonium charticola; [6]): 50%
- Myzelhemmung in % (Acremonium charticola; [7]): 100%
- Myzelhemmung in % (Acremonium charticola; [8]): 100%
- Myzelhemmung in % (Acremonium charticola; [9]): 43%
- Myzelhemmung in % (Acremonium charticola; [10]): 100%
- Myzelhemmung in % (Penicillium charlesii; [6]): 26%
- Myzelhemmung in % (Penicillium charlesii; [7]): 37%
- Myzelhemmung in % (Penicillium charlesii; [8]): 92%
- Myzelhemmung in % (Penicillium charlesii; [9]): 24%
- Myzelhemmung in % (Penicillium charlesii; [10]): 100%
- Myzelhemmung in % (Walrotiela subiculesa; [6]): 50%
- Myzelhemmung in % (Walrotiela subiculesa; [7]): 45%
- Myzelhemmung in % (Walrotiela subiculesa; [8]): 100%
- Myzelhemmung in % (Walrotiela subiculesa; [9]): 0%
- Myzelhemmung in % (Walrotiela subiculesa; [10]): 100%
- Myzelhemmung in % (Geotrichum candidum Link; [6]): 100%
- Myzelhemmung in % (Geotrichum candidum Link; [7]): 100%
- Myzelhemmung in % (Geotrichum candidum Link; [8]): 100%
- Myzelhemmung in % (Geotrichum candidum Link; [9]): 30%
- Myzelhemmung in % (Geotrichum candidum Link; [10]): 100%
- Myzelhemmung in % (Penicillium chrysogenum; [6]): 4%
- Myzelhemmung in % (Penicillium chrysogenum; [7]): 40%
- Myzelhemmung in % (Penicillium chrysogenum; [8]): 85%
- Myzelhemmung in % (Penicillium chrysogenum; [9]): 4%
- Myzelhemmung in % (Penicillium chrysogenum; [10]): 100%
- Löslichkeit in Wasser [3]: unlöslich
- Myzelhemmung in % [4, 6]: 100%
- Myzelhemmung in % [4, 7]: 100%
- Myzelhemmung in % [4, 8]: 100%
- Myzelhemmung in % [4, 9]: 45%
- Myzelhemmung in % [4, 10]: 100%
- LD50 [5]: 267 mg/kg
- Konzentrationen, welche das Bakterienwachstum völlig (100 %) hemmen (Bacillus): 0,25%
- Konzentrationen, welche das Bakterienwachstum völlig (100 %) hemmen (Xantomonas): 0,25%
- Konzentrationen, welche das Bakterienwachstum völlig (100 %) hemmen (Micrococcus): 0,25%
- Konzentrationen, welche das Bakterienwachstum völlig (100 %) hemmen (Escherichia): 0,25%
- Konzentrationen, welche das Bakterienwachstum völlig (100 %) hemmen (Pseudomonas): 0,25%
- Myzelhemmung in % (Cladosporium resinae; [6]): 43%
- Myzelhemmung in % (Cladosporium resinae; [7]): 75%
- Myzelhemmung in % (Cladosporium resinae; [8]): 100%
- Myzelhemmung in % (Cladosporium resinae; [9]): 34%
- Myzelhemmung in % (Cladosporium resinae; [10]): 100%

Substance: Kupfer-bis-(N-vinyloxyäthyldithiocarbamat)
- Lagerbeständigkeit [2]: lagerbeständig
- Myzelhemmung in % (Acremonium cowum; [11]): 100%
- Myzelhemmung in % (Acremonium cowum; [12]): 100%
- Myzelhemmung in % (Acremonium cowum; [13]): 100%
- Myzelhemmung in % (Acremonium cowum; [14]): 100%
- Myzelhemmung in % (Acremonium cowum; [15]): 100%
- Myzelhemmung in % (Acremonium charticola; [11]): 96%
- Myzelhemmung in % (Acremonium charticola; [12]): 100%
- Myzelhemmung in % (Acremonium charticola; [13]): 100%
- Myzelhemmung in % (Acremonium charticola; [14]): 100%
- Myzelhemmung in % (Acremonium charticola; [15]): 70%
- Myzelhemmung in % (Penicillium charlesii; [11]): 30%
- Myzelhemmung in % (Penicillium charlesii; [12]): 80%
- Myzelhemmung in % (Penicillium charlesii; [13]): 100%
- Myzelhemmung in % (Penicillium charlesii; [14]): 100%
- Myzelhemmung in % (Penicillium charlesii; [15]): 15%
- Myzelhemmung in % (Walrotiela subiculesa; [11]): 0%
- Myzelhemmung in % (Walrotiela subiculesa; [12]): 10%
- Myzelhemmung in % (Walrotiela subiculesa; [13]): 37%
- Myzelhemmung in % (Walrotiela subiculesa; [14]): 100%
- Myzelhemmung in % (Walrotiela subiculesa; [15]): 0%
- Myzelhemmung in % (Geotrichum candidum Link; [11]): 100%
- Myzelhemmung in % (Geotrichum candidum Link; [12]): 100%
- Myzelhemmung in % (Geotrichum candidum Link; [13]): 100%
- Myzelhemmung in % (Geotrichum candidum Link; [14]): 100%
- Myzelhemmung in % (Geotrichum candidum Link; [15]): 100%
- Myzelhemmung in % (Penicillium chrysogenum; [11]): 25%
- Myzelhemmung in % (Penicillium chrysogenum; [12]): 36%
- Myzelhemmung in % (Penicillium chrysogenum; [13]): 70%
- Myzelhemmung in % (Penicillium chrysogenum; [14]): 100%
- Myzelhemmung in % (Penicillium chrysogenum; [15]): 10%
- Löslichkeit in Wasser [3]: unlöslich
- Myzelhemmung in % [4, 11]: 36%
- Myzelhemmung in % [4, 12]: 65%
- Myzelhemmung in % [4, 13]: 80%
- Myzelhemmung in % [4, 14]: 100%
- Myzelhemmung in % [4, 15]: 15%
- Konzentrationen, welche das Bakterienwachstum völlig (100 %) hemmen (Bacillus): 0,15%
- Konzentrationen, welche das Bakterienwachstum völlig (100 %) hemmen (Xantomonas): 0,15%
- Konzentrationen, welche das Bakterienwachstum völlig (100 %) hemmen (Micrococcus): 0,15%
- Konzentrationen, welche das Bakterienwachstum völlig (100 %) hemmen (Escherichia): 0,15%
- Konzentrationen, welche das Bakterienwachstum völlig (100 %) hemmen (Pseudomonas): 0,15%
- Myzelhemmung in % (Cladosporium resinae; [11]): 50%
- Myzelhemmung in % (Cladosporium resinae; [12]): 80%
- Myzelhemmung in % (Cladosporium resinae; [13]): 90%
- Myzelhemmung in % (Cladosporium resinae; [14]): 100%
- Myzelhemmung in % (Cladosporium resinae; [15]): 34%
